According to PubChem BioAssay (NCI):
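Following 48 hours of exposure in 96-well plates, responses at five concentrations were used to interpolate endpoints linearly. GI50 = concentration required for 50% inhibition of growth. At the TGI there is no net growth.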

How the values were obtained:
Test in all cases: NCI anticancer screen, dose series, 48 h
[1] = tested on: HOP-62 NSCLC
[2] = tested on: ACHN renal
[3] = tested on: 786-0 renal
[4] = tested on: MCF7 breast
[5] = tested on: T-47D breast
[6] = tested on: NCI/ADR-RES ovarian
[7] = tested on: HL-60(TB) leukemia
[8] = tested on: K-562 leukemia
[9] = tested on: UACC-62 melanoma
[10] = tested on: HOP-92 NSCLC
[11] = tested on: SK-OV-3 ovarian
[12] = tested on: MDA-MB-435
[13] = tested on: HT29 colon
[14] = tested on: OVCAR-5 ovarian
[15] = tested on: CCRF-CEM leukemia
[16] = tested on: NCI-H226 lung
[17] = tested on: MDA-MB-231 breast
[18] = tested on: MALME-3M melanoma
[19] = tested on: TK-10 renal
[20] = tested on: CAKI-1 renal
[21] = tested on: SF-539 CNS
[22] = tested on: NCI-H522 lung
[23] = tested on: A549 NSCLC
[24] = tested on: HS 578T breast
[25] = tested on: BT-549 breast
[26] = tested on: SK-MEL-28 melanoma
[27] = tested on: UACC-257 melanoma
[28] = tested on: NCI-H23 lung
[29] = tested on: HCT-15 colon
[30] = tested on: SN12C renal
[31] = tested on: SNB-19 CNS
[32] = tested on: DU-145 prostate
[33] = tested on: NCI-H460 lung
[34] = tested on: IGROV1 ovarian
[35] = tested on: SK-MEL-5 melanoma
[36] = tested on: RPMI-8226 leukemia
[37] = tested on: SF-295 CNS
[38] = tested on: UO-31 renal
[39] = tested on: SR leukemia
[40] = tested on: EKVX NSCLC
[41] = tested on: COLO 205 colon
[42] = tested on: LOX IMVI melanoma
[43] = tested on: KM12 colon
[44] = tested on: OVCAR-8 ovarian
[45] = tested on: U251 CNS
[46] = tested on: OVCAR-3 ovarian
[47] = tested on: SW-620 colon
[48] = tested on: SK-MEL-2 melanoma
[49] = tested on: SNB-75 CNS
[50] = tested on: M14 melanoma
[51] = tested on: HCT-116 colon
[52] = tested on: OVCAR-4 ovarian
[53] = tested on: RXF 393 renal
[54] = tested on: PC-3 prostate
[55] = tested on: A498 renal
[56] = tested on: HCC-2998 colon
[57] = tested on: MOLT-4 leukemia
[58] = tested on: SF-268 CNS

For Cn1c(=O)n(CCCO)c(=O)c2c1nc(Oc1cccc(OC(F)(F)F)c1)n2Cc1ccc(Cl)cc1, the GI50 [1] was 16 µM, the TGI [1] was 33.3 µM and the GI50 [2] was 10.7 µM. For the same molecule, the TGI [2] was 23.4 µM, the GI50 [3] was 12.5 µM and the TGI [3] was 27.4 µM. It also gave a GI50 [4] of 4.77 µM, a TGI [4] of 22.2 µM and a GI50 [5] of 3.78 µM. For the same molecule, the TGI [5] was 21 µM, the GI50 [6] was 11.4 µM and the TGI [6] was 33.4 µM. The GI50 [7] was 5.78 µM, the TGI [7] was 22.9 µM and the GI50 [8] was 7.72 µM. It also gave a TGI [8] of 68.8 µM, a GI50 [9] of 13.2 µM and a TGI [9] of 29.1 µM. The GI50 [10] was 11 µM, the TGI [10] was 24.5 µM and the GI50 [11] was 18.1 µM. It also gave a TGI [11] of 34 µM, a GI50 [12] of 11.8 µM and a TGI [12] of 27.2 µM. For the same molecule, the GI50 [13] was 8.01 µM, the TGI [13] was 23.2 µM and the GI50 [14] was 13.1 µM. The TGI [14] was 26.3 µM, the GI50 [15] was 14.6 µM and the TGI [15] was 39.8 µM. The GI50 [16] was 16.8 µM, the TGI [16] was 38.4 µM and the GI50 [17] was 14.6 µM. The TGI [17] was 32.1 µM, the GI50 [18] was 15.7 µM and the TGI [18] was 31.6 µM. For the same molecule, the GI50 [19] was 14.7 µM, the TGI [19] was 30.1 µM and the GI50 [20] was 9.05 µM. It also gave a TGI [20] of 22.6 µM, a GI50 [21] of 12.9 µM and a TGI [21] of 26.9 µM. The GI50 [22] was 6.06 µM, the TGI [22] was 23.2 µM and the GI50 [23] was 11.2 µM. The TGI [23] was 25.5 µM, the GI50 [24] was 16.3 µM and the TGI [24] was 43.4 µM. The GI50 [25] was 12.9 µM, the TGI [25] was 26.4 µM and the GI50 [26] was 14.1 µM. For the same molecule, the TGI [26] was 29.5 µM, the GI50 [27] was 17.5 µM and the TGI [27] was 34.5 µM. The GI50 [28] was 15.8 µM, the TGI [28] was 37.6 µM and the GI50 [29] was 10.2 µM. It also gave a TGI [29] of 28.7 µM, a GI50 [30] of 13 µM and a TGI [30] of 29.8 µM. It also gave a GI50 [31] of 18.4 µM, a TGI [31] of 40.1 µM and a GI50 [32] of 13.2 µM. The TGI [32] was 27.5 µM, the GI50 [33] was 8.5 µM and the TGI [33] was 23.9 µM. For the same molecule, the GI50 [34] was 14.2 µM, the TGI [34] was 31.9 µM and the GI50 [35] was 16 µM. It also gave a TGI [35] of 30.9 µM, a GI50 [36] of 10.4 µM and a TGI [36] of 51.3 µM. It also gave a GI50 [37] of 13 µM, a TGI [37] of 28.5 µM and a GI50 [38] of 3.91 µM. For the same molecule, the TGI [38] was 17.7 µM, the GI50 [39] was 3.79 µM and the TGI [39] was 18.2 µM. The GI50 [40] was 12.4 µM, the TGI [40] was 32.2 µM and the GI50 [41] was 12.6 µM. It also gave a TGI [41] of 30.3 µM, a GI50 [42] of 12 µM and a TGI [42] of 28.8 µM. The GI50 [43] was 13.5 µM, the TGI [43] was 32.4 µM and the GI50 [44] was 14.4 µM. For the same molecule, the TGI [44] was 37.6 µM, the GI50 [45] was 12.5 µM and the TGI [45] was 29.8 µM. The GI50 [46] was 11.4 µM, the TGI [46] was 25.2 µM and the GI50 [47] was 13.1 µM. For the same molecule, the TGI [47] was 31.2 µM, the GI50 [48] was 14.7 µM and the TGI [48] was 32.6 µM. It also gave a GI50 [49] of 11.8 µM, a TGI [49] of 26.7 µM and a GI50 [50] of 11.8 µM. The TGI [50] was 27.4 µM, the GI50 [51] was 5.46 µM and the TGI [51] was 19.6 µM. The GI50 [52] was 13.2 µM, the TGI [52] was 30.4 µM and the GI50 [53] was 11.2 µM. It also gave a TGI [53] of 27.3 µM, a GI50 [54] of 13.7 µM and a TGI [54] of 29.3 µM. For the same molecule, the GI50 [55] was 13.8 µM, the TGI [55] was 26.9 µM and the GI50 [56] was 15 µM. The TGI [56] was 33.9 µM, the GI50 [57] was 5.21 µM and the TGI [57] was 21.7 µM. It also gave a GI50 [58] of 8.54 µM and a TGI [58] of 24.5 µM.
